Columns and labels:
IGF1R = IGF1R (Homo sapiens, UniProt P08069); test: Inhibition of IGF1R (flashplate assay); type: biochemical; details: flashplate method
Procedure: (§1) The test plates used are 96-well flashplate microtitre plates from Perkin Elmer (USA). The components of the kinase reaction are pipetted into the assay plate. The IGF1R kinase is incubated for 1 hr. with radioactively labelled ^33P-ATP in the presence and absence of test substances in a total volume of 100 μl at room temperature together with biotinylated poly(Glu, Tyr)4:1. The reaction is terminated using 25 μl of a 200 mM EDTA solution. After incubation for a further 30 min at room temperature, the supernatants are removed by suction, and the wells are washed three times with 100 μl of 0.9% NaCl solution each time. The radioactivity is measured using a Topcount scintillation counter (PerkinElmer, USA). IC50 values are calculated using the RS1 computer program.

[1] = biological target: T1, FAK (focal adhesion kinase) (Homo sapiens, UniProt Q05397); test: Inhibition of FAK (ELISA assay), FAK phosphorylation in cells; type: cell-based; details: human cells with FAK amplification
T1 construct: endogenous in cells; host or cells: Calu-6 or HT-29
Procedure: Activated FAK promotes the invasive growth of tumour cells and inhibits anoikis.
The amount of phosphorylated FAK is determined by a specific capture ELISA or an analogous LUMINEX assay. FAK from cell lysates is bound to a 96-well ELISA plate or LUMINEX beads by means of a specific antibody (“capturing”), and the tyrosine phosphorylation is detected using a biotin-labelled anti-phosphotyrosine antibody and a streptavidin-peroxidase conjugate by a chemiluminescence method or by means of a fluorescence-labelled anti-phosphotyrosine antibody.
For determination of the activity of kinase inhibitors, cells are pretreated with increasing concentrations of these compounds for 45 min, and the FAK phosphorylation is then determined. As internal control, a concentration series of a reference inhibitor is measured.

insulin receptor (InsR) = biological target: T2, insulin receptor (InsR) (Homo sapiens, UniProt P06213); test: Inhibition of InsR (ELISA assay), insulin-stimulated autophosphorylation in cells; type: cell-based; details: human cells stimulated with insulin
T2 construct: endogenous in cells; host or cells: HepG2
Procedure: Cultivated human cells which express the insulin receptor (InsR) (for example HepG2) are stimulated using human insulin, the natural ligand of InsR. The stimulation induces autophosphorylation of tyrosine residues in the cytoplasmatic InsR domain, which triggers signal transduction cascades, which initiate various biological reactions of the cells. The amount of phosphorylated InsR is determined by a receptor-specific capture ELISA or an analogous LUMINEX assay. The InsR from cell lysates is bound to a 96-well ELISA plate or LUMINEX beads by means of a specific antibody (“capturing”), and the tyrosine phosphorylation is detected using a biotin-labelled anti-phosphotyrosine antibody and a streptavidin-peroxidase conjugate by a chemiluminescence method or by means of a fluorescence-labelled anti-phosphotyrosine antibody. For determination of the activity of kinase inhibitors, cells are pretreated with increasing concentrations of these compounds for 45 min and subsequently stimulated using insulin for 5 min. As internal control, the biological activity of the ligand insulin is checked, and a concentration series of a reference inhibitor is measured.

Met = Met (Homo sapiens, UniProt P08581); test: Inhibition of Met (flashplate method); type: biochemical
IGF1 receptor (IGF1R) = biological target: T3, IGF1 receptor (IGF1R) (Homo sapiens, UniProt P08069); test: Inhibition of IGF1R (ELISA assay), IGF1-stimulated autophosphorylation in cells; type: cell-based; details: human tumour cells stimulated with IGF1, read-out: IC50 IGF (ELISA)
T3 construct: endogenous in cells; host or cells: MCF-7 or Calu-6
Procedure: The stimulation induces an autophosphorylation of tyrosine residues in the cytoplasmatic IGF1R domain, which triggers signal transduction cascades, which result in inhibition of apoptosis and proliferation of the cells.
The amount of phosphorylated IGF1R is determined by a receptor-specific capture ELISA or an analogous LUMINEX assay. The IGF1R from cell lysates is bound to a 96-well ELISA plate or LUMINEX beads by means of a specific antibody (“capturing”), and the tyrosine phosphorylation is detected using a biotin-labelled anti-phosphotyrosine antibody and a streptavidin-peroxidase conjugate by a chemiluminescence method or by means of a fluorescence-labelled anti-phosphotyrosine antibody.
For determination of the activity of kinase inhibitors, cells are pretreated with increasing concentrations of these compounds for 45 min and subsequently stimulated using IGF1 for 5 min. As internal control, the biological activity of the ligand IGF1 is checked, and a concentration series of an IGF1R reference inhibitor is measured.

TGFβR1 = biological target: T4, TGFβR1 (Homo sapiens, UniProt P36897); test: Inhibition of TGFβR1 (flashplate assay); type: biochemical; details: flashplate method
T4 sequence (P36897 34-503): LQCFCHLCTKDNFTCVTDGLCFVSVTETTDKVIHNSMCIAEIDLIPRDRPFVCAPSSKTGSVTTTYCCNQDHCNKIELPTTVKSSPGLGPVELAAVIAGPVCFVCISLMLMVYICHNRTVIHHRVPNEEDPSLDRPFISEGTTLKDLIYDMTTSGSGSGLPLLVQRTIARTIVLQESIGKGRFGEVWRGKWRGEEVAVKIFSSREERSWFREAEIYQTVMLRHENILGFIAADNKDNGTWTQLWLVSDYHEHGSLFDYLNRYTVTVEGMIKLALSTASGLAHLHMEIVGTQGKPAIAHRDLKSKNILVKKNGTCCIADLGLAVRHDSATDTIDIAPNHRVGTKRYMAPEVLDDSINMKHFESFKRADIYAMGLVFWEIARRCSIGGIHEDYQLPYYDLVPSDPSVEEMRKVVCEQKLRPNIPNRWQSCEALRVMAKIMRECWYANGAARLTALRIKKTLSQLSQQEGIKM
Procedure: The test is carried out as described in Example B1b for IGF1R. A biotinylated is added to the TGFβR1 kinase.
The kinase assay is carried out as a 384-well flashplate assay.
The components of the kinase reaction are pipetted into the assay plate. The TGFβR1 kinase is incubated for 45 min with radioactively labelled ^33P-ATP in the presence and absence of test substances together with biotinylated substrate in a total volume of 35 μl. The reaction is terminated using 25 μl of 200 mM EDTA solution, removed by suction after 30 min at room temperature, and the wells are washed with three times with 100 μl of 0.9% NaCl solution each time. The radioactivity is measured using a Topcount scintillation counter (PerkinElmer, USA). IC50 values are calculated using the RS1 computer program.

SGK1 = biological target: T5, SGK1 (Homo sapiens, UniProt O00141); test: Inhibition of SGK1 (flashplate assay); type: biochemical; details: flashplate method
T5 sequence (O00141 1-431): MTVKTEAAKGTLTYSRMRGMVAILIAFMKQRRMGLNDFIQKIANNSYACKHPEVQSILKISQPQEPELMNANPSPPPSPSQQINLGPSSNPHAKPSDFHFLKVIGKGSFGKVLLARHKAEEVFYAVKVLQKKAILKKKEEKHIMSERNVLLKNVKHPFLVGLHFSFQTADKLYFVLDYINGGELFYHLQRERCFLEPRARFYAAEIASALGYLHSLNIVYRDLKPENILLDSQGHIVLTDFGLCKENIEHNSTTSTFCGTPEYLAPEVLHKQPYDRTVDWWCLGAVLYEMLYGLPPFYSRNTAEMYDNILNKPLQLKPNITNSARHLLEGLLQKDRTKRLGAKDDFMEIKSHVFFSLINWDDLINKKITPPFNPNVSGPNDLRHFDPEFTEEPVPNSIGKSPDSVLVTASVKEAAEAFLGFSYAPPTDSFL
Procedure: as §1, with “are 384-well” for “are 96-well”, “The SGK1” for “The IGF1R”, “for 3” for “for 1”

TIE2 = TIE2 (Homo sapiens, UniProt Q02763); test: Inhibition of TIE2 (flashplate assay); type: biochemical; details: flashplate method
Procedure: B4: inhibition of T1E2 (Flashplate Assay)
as §1, with “are 384-well” for “are 96-well”, “The TIE2” for “The IGF1R”, “for 3” for “for 1”

VEGF-2 = VEGF-2 (Homo sapiens, UniProt P35968); test: Inhibition of VEGF-2 (flashplate assay); type: biochemical; details: flashplate method
Procedure: as §1, with “are 384-well” for “are 96-well”, “The VEGF-2” for “The IGF1R”, “for 3” for “for 1”

PDGFRβ = PDGFRβ (Homo sapiens, UniProt P09619); test: Inhibition of PDGFRβ (flashplate assay); type: biochemical; details: flashplate method
Procedure: as §1, with “The PDGFRβ” for “The IGF1R”, “for 3” for “for 1”, “temperature (here autophosphorylation of the kinase).” for “temperature together with biotinylated poly(Glu, Tyr)4:1.”, “using 150” for “using 25”, “a 60” for “a 200”, “with 200” for “with 100”

CHK = test: Inhibition of CHK (flashplate method); type: biochemical

Sequence of VEGF-2 (P35968 20-1356): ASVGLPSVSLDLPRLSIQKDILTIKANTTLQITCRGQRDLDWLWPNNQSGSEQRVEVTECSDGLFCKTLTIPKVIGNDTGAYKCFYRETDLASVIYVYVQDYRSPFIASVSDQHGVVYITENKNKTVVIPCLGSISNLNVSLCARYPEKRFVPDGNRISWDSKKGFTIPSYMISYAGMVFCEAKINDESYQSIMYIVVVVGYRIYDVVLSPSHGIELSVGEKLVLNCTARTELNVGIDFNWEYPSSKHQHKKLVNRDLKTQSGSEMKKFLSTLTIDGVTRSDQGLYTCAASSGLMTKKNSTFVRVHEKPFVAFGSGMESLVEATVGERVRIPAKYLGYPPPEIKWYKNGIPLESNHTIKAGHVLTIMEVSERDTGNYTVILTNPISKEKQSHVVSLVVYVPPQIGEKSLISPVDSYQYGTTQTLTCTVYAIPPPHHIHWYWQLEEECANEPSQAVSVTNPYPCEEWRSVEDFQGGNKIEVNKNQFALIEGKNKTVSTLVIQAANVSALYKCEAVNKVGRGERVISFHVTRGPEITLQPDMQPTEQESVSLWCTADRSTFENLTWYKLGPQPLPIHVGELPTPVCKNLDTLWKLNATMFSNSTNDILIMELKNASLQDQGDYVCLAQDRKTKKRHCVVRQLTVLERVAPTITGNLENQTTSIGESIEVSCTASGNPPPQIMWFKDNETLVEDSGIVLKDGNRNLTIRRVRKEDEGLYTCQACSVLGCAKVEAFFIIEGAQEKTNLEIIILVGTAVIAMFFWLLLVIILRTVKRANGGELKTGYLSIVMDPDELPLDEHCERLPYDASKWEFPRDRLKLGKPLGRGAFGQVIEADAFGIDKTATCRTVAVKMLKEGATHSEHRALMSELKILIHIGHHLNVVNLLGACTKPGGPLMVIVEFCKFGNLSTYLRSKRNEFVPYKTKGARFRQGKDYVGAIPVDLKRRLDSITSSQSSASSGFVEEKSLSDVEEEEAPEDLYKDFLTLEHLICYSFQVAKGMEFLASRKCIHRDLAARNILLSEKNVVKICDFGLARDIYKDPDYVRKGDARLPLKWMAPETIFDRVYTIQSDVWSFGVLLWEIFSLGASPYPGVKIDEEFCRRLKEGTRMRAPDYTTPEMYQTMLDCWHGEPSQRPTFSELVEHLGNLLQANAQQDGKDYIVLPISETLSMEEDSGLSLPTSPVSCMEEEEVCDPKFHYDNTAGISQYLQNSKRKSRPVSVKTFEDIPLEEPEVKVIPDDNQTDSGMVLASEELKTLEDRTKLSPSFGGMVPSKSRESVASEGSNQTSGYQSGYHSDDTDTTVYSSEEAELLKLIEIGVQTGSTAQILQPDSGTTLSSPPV
T3 sequence (P08069 31-1367): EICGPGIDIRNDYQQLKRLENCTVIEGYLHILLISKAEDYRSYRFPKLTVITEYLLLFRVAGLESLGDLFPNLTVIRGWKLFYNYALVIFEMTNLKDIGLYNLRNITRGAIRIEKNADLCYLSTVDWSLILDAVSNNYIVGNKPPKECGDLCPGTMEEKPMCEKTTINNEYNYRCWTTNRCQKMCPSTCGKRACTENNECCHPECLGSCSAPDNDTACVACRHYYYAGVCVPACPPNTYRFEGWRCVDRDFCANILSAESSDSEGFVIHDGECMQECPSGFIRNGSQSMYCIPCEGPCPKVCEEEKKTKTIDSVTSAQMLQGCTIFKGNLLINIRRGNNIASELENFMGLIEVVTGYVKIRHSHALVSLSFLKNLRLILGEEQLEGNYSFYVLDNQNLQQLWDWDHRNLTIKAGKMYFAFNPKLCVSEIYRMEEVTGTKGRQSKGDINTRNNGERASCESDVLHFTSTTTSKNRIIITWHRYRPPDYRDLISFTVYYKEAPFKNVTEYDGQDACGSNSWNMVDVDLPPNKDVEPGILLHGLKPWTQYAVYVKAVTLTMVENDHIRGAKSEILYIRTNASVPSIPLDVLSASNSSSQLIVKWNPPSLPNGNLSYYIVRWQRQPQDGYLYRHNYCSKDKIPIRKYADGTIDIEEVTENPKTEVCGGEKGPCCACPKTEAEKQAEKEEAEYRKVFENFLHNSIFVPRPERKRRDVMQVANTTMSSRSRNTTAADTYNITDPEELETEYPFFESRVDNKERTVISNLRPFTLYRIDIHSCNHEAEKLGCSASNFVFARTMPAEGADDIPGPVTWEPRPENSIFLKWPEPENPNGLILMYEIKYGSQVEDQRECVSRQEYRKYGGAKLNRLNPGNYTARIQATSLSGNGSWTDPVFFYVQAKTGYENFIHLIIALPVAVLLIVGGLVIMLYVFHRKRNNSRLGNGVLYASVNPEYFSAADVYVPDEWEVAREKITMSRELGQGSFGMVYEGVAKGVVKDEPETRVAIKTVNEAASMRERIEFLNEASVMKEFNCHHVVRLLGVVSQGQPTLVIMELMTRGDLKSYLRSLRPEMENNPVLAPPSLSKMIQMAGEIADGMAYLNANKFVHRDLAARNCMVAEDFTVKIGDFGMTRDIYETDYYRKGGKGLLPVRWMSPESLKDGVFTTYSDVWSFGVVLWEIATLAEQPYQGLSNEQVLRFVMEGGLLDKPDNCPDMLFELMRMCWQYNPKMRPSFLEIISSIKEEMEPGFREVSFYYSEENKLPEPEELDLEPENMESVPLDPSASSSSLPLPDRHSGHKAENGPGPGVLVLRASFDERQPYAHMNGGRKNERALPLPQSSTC
Sequence of IGF1R (P08069 31-1367, species assumed): as the sequence (P08069 31-1367) above
T1 sequence (Q05397 whole entry): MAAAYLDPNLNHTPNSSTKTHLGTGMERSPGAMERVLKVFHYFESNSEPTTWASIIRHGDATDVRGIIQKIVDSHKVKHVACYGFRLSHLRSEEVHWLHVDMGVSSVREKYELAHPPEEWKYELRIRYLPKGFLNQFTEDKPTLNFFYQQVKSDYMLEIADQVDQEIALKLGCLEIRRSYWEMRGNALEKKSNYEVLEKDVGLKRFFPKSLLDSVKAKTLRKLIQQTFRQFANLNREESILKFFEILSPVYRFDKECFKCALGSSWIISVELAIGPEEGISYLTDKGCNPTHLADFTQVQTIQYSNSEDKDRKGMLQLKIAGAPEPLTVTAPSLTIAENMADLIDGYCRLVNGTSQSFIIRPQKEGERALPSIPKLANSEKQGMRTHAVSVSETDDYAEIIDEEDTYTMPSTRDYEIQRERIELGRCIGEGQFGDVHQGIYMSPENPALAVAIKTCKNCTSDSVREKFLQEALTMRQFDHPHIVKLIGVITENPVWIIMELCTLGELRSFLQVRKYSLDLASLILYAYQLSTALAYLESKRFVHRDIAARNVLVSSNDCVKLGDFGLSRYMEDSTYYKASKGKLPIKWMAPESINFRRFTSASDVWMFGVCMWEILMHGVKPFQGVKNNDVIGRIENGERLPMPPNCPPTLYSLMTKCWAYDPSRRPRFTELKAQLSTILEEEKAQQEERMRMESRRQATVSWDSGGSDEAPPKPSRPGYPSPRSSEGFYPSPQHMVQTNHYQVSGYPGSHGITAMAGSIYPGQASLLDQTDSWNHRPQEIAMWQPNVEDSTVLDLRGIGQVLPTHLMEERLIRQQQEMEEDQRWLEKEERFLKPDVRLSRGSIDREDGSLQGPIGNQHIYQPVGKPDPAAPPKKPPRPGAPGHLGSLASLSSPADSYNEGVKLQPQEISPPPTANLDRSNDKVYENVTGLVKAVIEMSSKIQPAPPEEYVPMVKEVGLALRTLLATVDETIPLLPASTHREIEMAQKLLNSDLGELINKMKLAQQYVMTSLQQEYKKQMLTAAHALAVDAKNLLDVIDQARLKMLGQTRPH
Sequence of TIE2 (Q02763 23-1124, species assumed): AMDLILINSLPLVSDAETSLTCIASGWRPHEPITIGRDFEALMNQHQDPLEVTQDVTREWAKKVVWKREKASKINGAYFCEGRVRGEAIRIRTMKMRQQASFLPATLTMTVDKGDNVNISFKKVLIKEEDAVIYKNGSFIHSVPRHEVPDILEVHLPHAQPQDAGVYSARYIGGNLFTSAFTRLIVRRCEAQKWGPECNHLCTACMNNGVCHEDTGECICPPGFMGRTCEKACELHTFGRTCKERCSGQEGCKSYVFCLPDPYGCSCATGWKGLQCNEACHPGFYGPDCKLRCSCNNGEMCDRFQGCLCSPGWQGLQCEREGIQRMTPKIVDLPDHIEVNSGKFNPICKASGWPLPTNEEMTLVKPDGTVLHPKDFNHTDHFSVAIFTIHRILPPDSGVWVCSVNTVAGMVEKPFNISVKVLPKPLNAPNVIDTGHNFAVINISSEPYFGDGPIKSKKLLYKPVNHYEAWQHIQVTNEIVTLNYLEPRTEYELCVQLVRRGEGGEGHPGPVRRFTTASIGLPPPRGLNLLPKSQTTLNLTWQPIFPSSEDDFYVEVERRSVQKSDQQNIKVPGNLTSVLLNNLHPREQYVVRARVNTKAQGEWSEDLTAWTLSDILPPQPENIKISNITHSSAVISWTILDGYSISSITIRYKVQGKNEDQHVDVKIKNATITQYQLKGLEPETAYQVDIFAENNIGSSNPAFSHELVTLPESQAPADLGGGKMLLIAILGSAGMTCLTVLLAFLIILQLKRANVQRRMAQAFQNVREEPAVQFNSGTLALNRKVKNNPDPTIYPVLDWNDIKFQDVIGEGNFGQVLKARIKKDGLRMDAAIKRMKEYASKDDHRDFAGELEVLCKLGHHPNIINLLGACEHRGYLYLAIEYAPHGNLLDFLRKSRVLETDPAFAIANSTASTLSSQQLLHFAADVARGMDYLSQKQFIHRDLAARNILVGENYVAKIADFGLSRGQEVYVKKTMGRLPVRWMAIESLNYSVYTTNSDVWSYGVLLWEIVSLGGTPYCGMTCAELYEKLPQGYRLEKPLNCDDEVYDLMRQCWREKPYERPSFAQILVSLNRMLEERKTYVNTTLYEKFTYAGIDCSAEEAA

Structure (SMILES)	IC50 (IGF1R)	IC50 [1]	IC50 (insulin receptor (InsR))	IC50 (Met)	IC50 (IGF1 receptor (IGF1R))	IC50 (TGFβR1)	IC50 (SGK1)	melting point	IC50 (TIE2)	IC50 (VEGF-2)	IC50 (PDGFRβ)	IC50 (CHK)
C[Si](C)(COc1cccc(-c2cn(C3CC(CN)C3)c3ncnc(N)c23)c1)c1ccccc1 (stereo not shown) [Compound 8]	0.32 µM	16 µM	9.5 µM	1.1 µM	0.81 µM	–	–	–	–	–	–	–
NCC1CC(n2cc(-c3ccco3)c3c(N)ncnc32)C1 (stereo not shown) [Compound 38]	–	18 µM	–	–	17 µM	–	2.6 µM	–	–	2.3 µM	–	8.8 µM
NCC1CC(n2cc(-c3ccoc3)c3c(N)ncnc32)C1 (stereo not shown) [Compound 39]	–	15 µM	–	–	–	8.5 µM	2.5 µM	–	–	–	–	–
NCC1CC(n2cc(-c3ccsc3)c3c(N)ncnc32)C1 (stereo not shown) [Compound 40]	–	2.6 µM	–	–	18 µM	2.2 µM	8.4 µM	109 to 111 °C	9.3 µM	1.8 µM	0.75 µM	–
NCC1CC(n2cc(C#CCO)c3c(N)ncnc32)C1 (stereo not shown) [Compound 47]	–	–	–	–	–	–	2.55 µM	–	–	–	–	–
Nc1ncnc2c1c(-c1ccc3occc3c1)cn2C1CC(CNC(=O)C(F)(F)F)C1 (stereo not shown) [Compound 64]	–	3.6 µM	–	–	–	0.33 µM	4.4 µM	92 to 93.5 °C	2.4 µM	1.06 µM	2.45 µM	–
Cc1csc(-c2cn(C3CC(CN)C3)c3ncnc(N)c23)c1 (stereo not shown) [Compound 70]	–	7.1 µM	–	–	8.5 µM	1.4 µM	4.45 µM	–	2.6 µM	–	2.5 µM	–

Results, then the compound that gave them:

IC50 (IGF1R)	IC50 [1]	IC50 (insulin receptor (InsR))	IC50 (Met)	IC50 (IGF1 receptor (IGF1R))	IC50 (TGFβR1)	IC50 (SGK1)	melting point	IC50 (TIE2)	IC50 (VEGF-2)	IC50 (PDGFRβ)	IC50 (CHK)	Structure (SMILES)
0.13 µM	14 µM	5.5 µM	–	0.57 µM	–	–	–	–	–	–	–	C[Si](C)(C)COc1cccc(-c2cn(C3CC(CN)C3)c3ncnc(N)c23)c1 (stereo not shown) [Compound 9]
7.6 µM	1.21 µM	–	–	14 µM	0.81 µM	1.95 µM	–	–	–	–	–	NCC1CC(n2cc(-c3cccc(N)c3)c3c(N)ncnc32)C1 (stereo not shown) [Compound 23]
0.82 µM	–	–	–	3 µM	3.7 µM	3.6 µM	204 to 206 °C	1.5 µM	0.39 µM	1.2 µM	–	NCC1CC(n2cc(-c3cccc(NCc4ccccc4)c3)c3c(N)ncnc32)C1 (stereo not shown) [Compound 25]
5.6 µM	3.8 µM	–	–	6.2 µM	2.7 µM	1.6 µM	–	4.8 µM	1.2 µM	–	–	NCC1CC(n2cc(-c3cccs3)c3c(N)ncnc32)C1 (stereo not shown) [Compound 41]
–	–	–	–	7.5 µM	–	0.25 µM	–	2.6 µM	0.715 µM	1.1 µM	–	NCC1CC(n2cc(I)c3c(N)ncnc32)C1 (stereo not shown) [Compound 52]

— US20100160356A1, “NOVEL CYCLOBUTYL COMPOUNDS AS KINASE INHIBITORS” (priority 2006, published 2010)
